Experimental data published in patent US11583498B2 (Wakamono Corporation, priority 2020, dated 2023).

Assays:
[1] = Water dispersibility comparison (FIG. 1); assay type: physicochemical; details: dispersed in water, vials of FIG. 1
Excerpt: With reference to FIG. 1, water dispersibility was compared between the known 95% Tan IIA and nano Tan IIA obtained by the process according to the present invention, in which Vial A represented the known 95% Tan IIA dispersed in water, Vial B represented nano Tan IIA dispersed in water obtained by the process according to the present invention.

[2] = oral administration; cited from earlier work

For `Cc1coc2c1C(=O)C(=O)c1c-2ccc2c1CCCC2(C)C` [Tan IIA, Tanshinone IIA], the water dispersibility [1] is listed as “water insoluble” and the bioavailability [2] is listed as “low bioavailability”.
